These are literature values, as cited in US12343320B2, “Intraveneous dofetilide to reduce the risk of developing AF/AFL post coronary bypass surgery” (Hyloris Developments SA, priority 2023, dated 2025).

Data set [1] concerns QTc interval. The conditions noted are these: average slope; Sedgwick et al 1991.
The conditions of data set [2]: IV dose of 1.5 μg/kg, restated rounded.

Turning to `CN(CCOc1ccc(NS(C)(=O)=O)cc1)CCc1ccc(NS(C)(=O)=O)cc1` [dofetilide, Dofetilide], the “QTc change per dofetilide plasma concentration, average” value in data set [1] is 20 ms. Also, in data set [2], the peak level is 1.7 ng/mL.
